Values after ≈ are worked out from the molar mass of the structure shown. Values belong to the compound of their own block, whether it stands above or below them.
Experiments:
Experiment in all cases: ≥ marks a high value that may be exact or a test limit, other limits are often not marked, values filed in µg/mL are converted to µM
[1] = system: Candida albicans ATCC 2048
[2] = system: Candida glabrata ATCC 90525
Candida krusei ATCC 6258 = system: Candida krusei ATCC 6258
[3] = system: Candida parapsilosis ATCC 20224
[4] = system: Candida tropicalis ATCC 20240
[5] = system: Staphylococcus aureus ATCC 43300
Vibrio cholerae CUN 09 = system: Vibrio cholerae CUN 09
[6] = system: Lactobacillus delbrueckii subsp. bulgaricus CIDCA 331
[7] = system: Lactobacillus delbrueckii subsp. lactis CIDCA 133
[8] = system: Acinetobacter baumannii ATCC BAA-1605
[9] = system: Escherichia coli ATCC 25922
[10] = system: Escherichia coli ATCC 43827
[11] = system: Listeria monocytogenes EGD
[12] = system: Pseudomonas aeruginosa ATCC 27853
[13] = system: Pseudomonas aeruginosa ATCC 9027
[14] = system: Staphylococcus aureus ATCC 25923
[15] = system: Staphylococcus aureus ATCC 33591
[16] = system: Listeria monocytogenes ATCC 19114
[17] = system: Listeria monocytogenes ATCC 19115
[18] = system: Listeria monocytogenes ATCC 7644
[19] = system: Listeria monocytogenes NCTC 18890
Listeria monocytogenes = system: Listeria monocytogenes

MIC [1]: ≥ 130 µM
MIC [2]: ≥ 110 µM
MIC (Candida krusei ATCC 6258): ≥ 130 µM
MIC [3]: ≥ 130 µM
MIC [4]: ≥ 73 µM
Structure (SMILES): CC[C@H](C)[C@H](NC(=O)[C@H](CO)NC(=O)[C@H](CC(C)C)NC(=O)[C@@H](NC(=O)[C@H](CCCN=C(N)N)NC(=O)[C@@H](N)CCC(=O)O)[C@@H](C)CC)C(=O)N[C@@H](CC(C)C)C(=O)N[C@@H](CCCN=C(N)N)C(=O)N[C@@H](Cc1cnc[nH]1)C(=O)N[C@@H](CCC(N)=O)C(=O)N[C@@H](CC(N)=O)C(=O)N[C@@H](CC(C)C)C(=O)N[C@@H](CC(C)C)C(=O)N[C@@H](CCCCN)C(=O)N[C@@H](CCC(=O)O)C(=O)O [ERILSILRHQNLLKE]

MIC [5]: 6.05 µM (≈ 16 µg/mL)
Structure (SMILES): CC(C)C[C@H](NC(=O)[C@H](CCCCN)NC(=O)CNC(=O)[C@H](CCCCN)NC(=O)[C@H](Cc1ccccc1)NC(=O)[C@H](CCCCN)NC(=O)[C@H](Cc1c[nH]c2ccccc12)NC(=O)[C@H](CCCN=C(N)N)NC(=O)[C@H](Cc1ccccc1)NC(=O)[C@H](CCCN=C(N)N)NC(=O)[C@H](CCCN=C(N)N)NC(=O)[C@H](Cc1ccc(O)cc1)NC(=O)[C@H](CCCCN)NC(=O)[C@H](CCCCN)NC(=O)[C@H](CS)NC(=O)CN)C(=O)N[C@@H](Cc1c[nH]c2ccccc12)C(=O)N[C@@H](CC(C)C)C(=O)N[C@@H](Cc1c[nH]c2ccccc12)C(=O)NCC(N)=O [GCKKYRRFRWKFKGKLWLWG]
MIC (Vibrio cholerae CUN 09): 12.1 µM (≈ 32 µg/mL)

MIC [6]: 25 µM (≈ 37.9 µg/mL)
MIC [7]: ≥ 50 µM
Structure (SMILES): CC[C@H](C)[C@H](NC(=O)[C@H](CC(=O)O)NC(=O)[C@H](Cc1ccccc1)NC(=O)[C@H](CC(C)C)NC(=O)CN)C(=O)N[C@@H](CCCCN)C(=O)N[C@@H](CCCCN)C(=O)N[C@H](C(=O)N[C@@H](C)C(=O)N[C@@H](CO)C(=O)N[C@H](C(=O)N[C@H](C(=O)NCC(=O)NCC(=O)N[C@@H](CC(C)C)C(N)=O)[C@@H](C)CC)C(C)C)C(C)C [GLFDIKKVASVIGGL]

MIC [8]: ≥ 105 µM
MIC [9]: 128 µM (≈ 313 µg/mL)
MIC [10]: ≥ 209 µM
MIC [11]: ≥ 128 µM
MIC [12]: 128 µM (≈ 313 µg/mL)
MIC [13]: 209 µM (≈ 512 µg/mL)
MIC [14]: 128 µM (≈ 313 µg/mL)
MIC [15]: ≥ 209 µM
Structure (SMILES): CC[C@H](C)[C@H](NC(=O)[C@H](Cc1ccccc1)NC(=O)[C@H](CCCCN)NC(=O)[C@H](CC(N)=O)NC(=O)[C@H](CC(C)C)NC(=O)[C@H](CCC(N)=O)NC(=O)CN)C(=O)N[C@@H](CCCCN)C(=O)N[C@@H](CCCCN)C(=O)N[C@@H](C)C(=O)N[C@@H](CCC(N)=O)C(=O)N[C@@H](CCCN=C(N)N)C(=O)N[C@@H](CCCCN)C(=O)N[C@@H](Cc1ccccc1)C(=O)N[C@@H](Cc1cnc[nH]1)C(=O)N[C@@H](CCC(=O)O)C(=O)N[C@@H](CCCCN)C(=O)N[C@@H](Cc1ccccc1)C(=O)N[C@@H](C)C(=O)N[C@@H](CCCCN)C(N)=O [GQLNKFIKKAQRKFHEKFAK]

MIC [16]: ≥ 1960 µM
MIC [17]: ≥ 1960 µM
MIC [18]: ≥ 1960 µM
MIC [19]: ≥ 1960 µM
MIC (Listeria monocytogenes): ≥ 1960 µM
Structure (SMILES): CSCC[C@H](N)C(=O)N[C@@H](CCCN=C(N)N)C(=O)NCC(=O)N[C@@H](CO)C(=O)N[C@@H](Cc1cnc[nH]1)C(=O)N[C@@H](Cc1cnc[nH]1)C(=O)N[C@@H](Cc1cnc[nH]1)C(=O)N[C@@H](Cc1cnc[nH]1)C(=O)N[C@@H](Cc1cnc[nH]1)C(=O)N[C@@H](Cc1cnc[nH]1)C(=O)NCC(=O)N[C@@H](CO)C(=O)N[C@@H](CO)C(=O)NCC(=O)N[C@@H](CCC(=O)O)C(=O)N[C@@H](CC(N)=O)C(=O)N[C@@H](CC(C)C)C(=O)N[C@@H](Cc1ccc(O)cc1)C(=O)N[C@@H](Cc1ccccc1)C(=O)N[C@@H](CCC(N)=O)C(=O)N[C@@H](CO)C(=O)N[C@@H](CC(C)C)C(=O)O [MRGSHHHHHHGSSGENLYFQSL]
